Key:
Type in all cases: in vivo
Set-up in all cases: key: 0 is no effect; 10 is complete control
[1] = tested on: pigweed (Amaranthus retroflexus); assay: Test B pre-/postemergence
In short: (§1)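 Scored visually 0 (none) to 10 (complete control) against untreated plants after twelve to sixteen greenhouse days. Test chemicals, formulated in surfactant-containing non-phytotoxic solvent, applied to soil after planting and, separately, onto 1- to 4-leaf (2–18 cm) plants.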

[2] = tested on: cocklebur (Xanthium strumarium); assay: Test B pre-/postemergence; conditions: for Cocklebur plant response rating: Preemergence
In short: as §1

[3] = tested on: sugar beet (Beta vulgaris); assay: Test B pre-/postemergence
In short: as §1

[4] = tested on: velvetleaf (Abutilon theophrasti); assay: Test B pre-/postemergence
In short: as §1

[5] = tested on: momingglory (Ipomoea hederacea); assay: Test B pre-/postemergence
In short: as §1

[6] = tested on: soybean (Glycine max); assay: Test B pre-/postemergence
In short: as §1

[7] = tested on: bedstraw (Galium aparine); assay: Test B pre-/postemergence; conditions: for Bedstraw plant response rating: Preemergence
In short: as §1

[8] = tested on: corn (Zea mays); assay: Test B pre-/postemergence; conditions: for Corn plant response rating: Preemergence
In short: as §1

[9] = tested on: broadleaf signalgrass (Brachiaria decumbens); assay: Test B pre-/postemergence; conditions: for B. signalgrass plant response rating: Preemergence
In short: as §1

[10] = tested on: wheat (Triticum aestivum); assay: Test B pre-/postemergence
In short: as §1

[11] = tested on: rape (Brassica napus); assay: Test B pre-/postemergence
In short: as §1

[12] = tested on: crabgrass (Digitaria sanguinalis); assay: Test B pre-/postemergence; conditions: for Crabgrass plant response rating: Preemergence
In short: as §1

[13] = tested on: blackgrass (Alopecurus myosuroides); assay: Test B pre-/postemergence; conditions: for Blackgrass plant response rating: Preemergence
In short: as §1

[14] = tested on: purple nutsedge (Cyperus rotundus); assay: Test B pre-/postemergence
In short: as §1

[15] = tested on: wild oat (Avena fatua); assay: Test B pre-/postemergence
In short: as §1

[16] = tested on: giant foxtail (Setaria faberii); assay: Test B pre-/postemergence
In short: as §1

[17] = tested on: duck salad (Heteranthera limosa); assay: Test B flood test
In short: (§2)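 Flood test on plants grown to the 2-leaf stage; treated plants kept in greenhouse twelve to sixteen days, then visually rated against controls on a 0 (no effect) to 10 (complete control) scale.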

[18] = tested on: bamyardgrass (Echinochloa crus-galli); assay: Test B flood test
In short: as §2

[19] = tested on: smallflower flatsedge (Cyperus difformis); assay: Test B flood test
In short: as §2

[20] = tested on: rice (Oryza sativa); assay: Test B flood test
In short: as §2

[21] = Rate 250 g/ha, Postemergence (so in the source)
[22] = Rate 62 g/ha, Postemergence (flood test)
[23] = Rate 125 g/ha, Postemergence, flood test
[24] = Rate 250 g/ha, Postemergence (flood test species)
[25] = Rate 125 g/ha, Postemergence section (flood test species)

Cc1cnc(-c2ccc(F)cc2F)nc1Cc1cccc(C#N)c1 [Compound 34] was tested, and the “Plant response rating, Redroot pigweed” value ([1]; Rate 62 g/ha, Postemergence) was 1, the “Redroot pigweed plant response rating” value ([1]; Rate 62 g/ha, Preemergence) was 0 and the “Redroot pigweed plant response rating” value ([1]; Rate 125 g/ha, Postemergence) was 3. The “Redroot pigweed plant response rating” value ([1]; Rate 125 g/ha, Preemergence) was 0, the “Plant response rating, Redroot pigweed” value ([1]; Rate 250 g/ha, Postemergence) was 6 and the “Plant response rating, Redroot pigweed” value [1, 21] was 2. The “Plant response rating, Cocklebur” value ([2]; Rate 62 g/ha, Postemergence) was 2, the “Cocklebur plant response rating” value ([2]; Rate 62 g/ha) was 0 and the “Plant response rating, Cocklebur” value ([2]; Rate 125 g/ha, Postemergence) was 2. For the same compound, the “Cocklebur plant response rating” value ([2]; Rate 125 g/ha) was 0, the “Plant response rating, Cocklebur” value ([2]; Rate 250 g/ha, Postemergence) was 8 and the “Plant response rating, Cocklebur” value [2, 21] was 0. For the same compound, the “Plant response rating, Sugarbeets” value ([3]; Rate 62 g/ha, Postemergence) was 8, the “Sugarbeets plant response rating” value ([3]; Rate 62 g/ha, Preemergence) was 0 and the “Sugarbeets plant response rating” value ([3]; Rate 125 g/ha, Postemergence) was 8. For the same compound, the “Plant response rating, Sugarbeets” value ([3]; Rate 125 g/ha, Preemergence) was 0, the “Plant response rating, Sugarbeets” value ([3]; Rate 250 g/ha, Postemergence) was 9 and the “Plant response rating, Sugarbeets” value [3, 21] was 0. The “Plant response rating, Velvetleaf” value ([4]; Rate 62 g/ha, Postemergence) was 1, the “Velvetleaf plant response rating” value ([4]; Rate 62 g/ha, Preemergence) was 0 and the “Velvetleaf plant response rating” value ([4]; Rate 125 g/ha, Postemergence) was 1. For the same compound, the “Plant response rating, Velvetleaf” value ([4]; Rate 125 g/ha, Preemergence) was 0, the “Plant response rating, Velvetleaf” value ([4]; Rate 250 g/ha, Postemergence) was 1 and the “Plant response rating, Velvetleaf” value [4, 21] was 0. The “Plant response rating, Morningglory” value ([5]; Rate 62 g/ha, Postemergence) was 1, the “Morningglory plant response rating” value ([5]; Rate 62 g/ha, Preemergence) was 0 and the “Morningglory plant response rating” value ([5]; Rate 125 g/ha, Postemergence) was 1. The “Morningglory plant response rating” value ([5]; Rate 125 g/ha, Preemergence) was 0, the “Plant response rating, Morningglory” value ([5]; Rate 250 g/ha, Postemergence) was 2 and the “Plant response rating, Morningglory” value [5, 21] was 0. For the same compound, the “Plant response rating, Soybean” value ([6]; Rate 62 g/ha, Postemergence) was 1, the “Soybean plant response rating” value ([6]; Rate 62 g/ha, Preemergence) was 0 and the “Soybean plant response rating” value ([6]; Rate 125 g/ha, Postemergence) was 2. For the same compound, the “Plant response rating, Soybean” value ([6]; Rate 125 g/ha, Preemergence) was 0, the “Plant response rating, Soybean” value ([6]; Rate 250 g/ha, Postemergence) was 2 and the “Plant response rating, Soybean” value [6, 21] was 0. The “Plant response rating, Bedstraw” value ([7]; Rate 62 g/ha, Postemergence) was 2, the “Bedstraw plant response rating” value ([7]; Rate 62 g/ha) was 0 and the “Plant response rating, Bedstraw” value ([7]; Rate 125 g/ha, Postemergence) was 3. For the same compound, the “Bedstraw plant response rating” value ([7]; Rate 125 g/ha) was 0, the “Plant response rating, Bedstraw” value ([7]; Rate 250 g/ha, Postemergence) was 7 and the “Plant response rating, Bedstraw” value [7, 21] was 0. For the same compound, the “Plant response rating, Corn” value ([8]; Rate 62 g/ha, Postemergence) was 1, the “Corn plant response rating” value ([8]; Rate 62 g/ha) was 0 and the “Plant response rating, Corn” value ([8]; Rate 125 g/ha, Postemergence) was 1. For the same compound, the “Corn plant response rating” value ([8]; Rate 125 g/ha) was 0, the “Plant response rating, Corn” value ([8]; Rate 250 g/ha, Postemergence) was 1 and the “Plant response rating, Corn” value [8, 21] was 0. For the same compound, the “Plant response rating, B. signalgrass” value ([9]; Rate 62 g/ha, Postemergence) was 1, the “B. signalgrass plant response rating” value ([9]; Rate 62 g/ha) was 0 and the “Plant response rating, B. signalgrass” value ([9]; Rate 125 g/ha, Postemergence) was 1. The “B. signalgrass plant response rating” value ([9]; Rate 125 g/ha) was 0, the “Plant response rating, B. signalgrass” value ([9]; Rate 250 g/ha, Postemergence) was 1 and the “Plant response rating, B. signalgrass” value ([9]; Rate 250 g/ha, Postemergence as printed in head r139 (second section for compounds 26-50)) was 1. The “Wheat plant response rating” value ([10]; Rate 62 g/ha, Postemergence) was 0, the “Wheat plant response rating” value ([10]; Rate 62 g/ha, Preemergence) was 0 and the “Wheat plant response rating” value ([10]; Rate 125 g/ha, Postemergence) was 1. For the same compound, the “Plant response rating, Wheat” value ([10]; Rate 125 g/ha, Preemergence) was 0, the “Plant response rating, Wheat” value ([10]; Rate 250 g/ha, Postemergence) was 1 and the “Plant response rating, Wheat” value [10, 21] was 0. The “Plant response rating, Rape” value ([11]; Rate 62 g/ha, Postemergence) was 2, the “Rape plant response rating” value ([11]; Rate 62 g/ha, Preemergence) was 0 and the “Rape plant response rating” value ([11]; Rate 125 g/ha, Postemergence) was 3. For the same compound, the “Rape plant response rating” value ([11]; Rate 125 g/ha, Preemergence) was 0, the “Plant response rating, Rape” value ([11]; Rate 250 g/ha, Postemergence) was 3 and the “Plant response rating, Rape” value [11, 21] was 0. For the same compound, the “Plant response rating, Crabgrass” value ([12]; Rate 62 g/ha, Postemergence) was 0, the “Crabgrass plant response rating” value ([12]; Rate 62 g/ha) was 0 and the “Plant response rating, Crabgrass” value ([12]; Rate 125 g/ha, Postemergence) was 1. For the same compound, the “Crabgrass plant response rating” value ([12]; Rate 125 g/ha) was 0, the “Plant response rating, Crabgrass” value ([12]; Rate 250 g/ha, Postemergence) was 1 and the “Plant response rating, Crabgrass” value [12, 21] was 1. For the same compound, the “Plant response rating, Blackgrass” value ([13]; Rate 62 g/ha, Postemergence) was 0, the “Blackgrass plant response rating” value ([13]; Rate 62 g/ha) was 0 and the “Plant response rating, Blackgrass” value ([13]; Rate 125 g/ha, Postemergence) was 1. The “Blackgrass plant response rating” value ([13]; Rate 125 g/ha) was 0, the “Plant response rating, Blackgrass” value ([13]; Rate 250 g/ha, Postemergence) was 1 and the “Plant response rating, Blackgrass” value [13, 21] was 0. For the same compound, the “Plant response rating, Nutsedge” value ([14]; Rate 62 g/ha, Postemergence) was 0, the “Nutsedge plant response rating” value ([14]; Rate 62 g/ha, Preemergence) was 0 and the “Nutsedge plant response rating” value ([14]; Rate 125 g/ha, Postemergence) was 0. The “Nutsedge plant response rating” value ([14]; Rate 125 g/ha, Preemergence) was 0, the “Plant response rating, Nutsedge” value ([14]; Rate 250 g/ha, Postemergence) was 0 and the “Plant response rating, Nutsedge” value [14, 21] was 0. The “Wild oats plant response rating” value ([15]; Rate 62 g/ha, Postemergence) was 0, the “Wild oats plant response rating” value ([15]; Rate 62 g/ha, Preemergence) was 0 and the “Wild oats plant response rating” value ([15]; Rate 125 g/ha, Postemergence) was 1. For the same compound, the “Plant response rating, Wild oats” value ([15]; Rate 125 g/ha, Preemergence) was 0, the “Plant response rating, Wild oats” value ([15]; Rate 250 g/ha, Postemergence) was 2 and the “Plant response rating, Wild oats” value [15, 21] was 0. The “Plant response rating, Giant foxtail” value ([16]; Rate 62 g/ha, Postemergence) was 0, the “Giant foxtail plant response rating” value ([16]; Rate 62 g/ha, Preemergence) was 0 and the “Giant foxtail plant response rating” value ([16]; Rate 125 g/ha, Postemergence) was 1. The “Giant foxtail plant response rating” value ([16]; Rate 125 g/ha, Preemergence) was 0, the “Plant response rating, Giant foxtail” value ([16]; Rate 250 g/ha, Postemergence) was 1 and the “Plant response rating, Giant foxtail” value [16, 21] was 1. For the same compound, the “Plant response rating, Ducksalad” value [17, 22] was 0, the “Plant response rating, Ducksalad” value [17, 23] was 0 and the “Plant response rating, Ducksalad” value [17, 24] was 0. The “Plant response rating, Barnyardgrass” value [18, 22] was 0, the “Plant response rating, Barnyardgrass” value [18, 23] was 0 and the “Plant response rating, Barnyardgrass” value [18, 24] was 1. For the same compound, the “Plant response rating, S. Flatsedge” value [19, 22] was 2, the “S. Flatsedge plant response rating” value [19, 25] was 2 and the “Plant response rating, S. Flatsedge” value [19, 24] was 3. For the same compound, the “Plant response rating, Rice” value [20, 22] was 1, the “Rice plant response rating” value [20, 25] was 1 and the “Plant response rating, Rice” value [20, 24] was 1.

Reference: patent publication US6525001B1, “Substituted pyrimidine and pyridine herbicides” (Mid-American Commercialization Corporation, priority 1997, dated 2003)
